Results: patent US10954265B2 (Van Andel Research Institute, priority 2016, dated 2021)
Positions count from the first letter of the chain named. Where “and” joins values, the source holds several entries; their conditions need not be identical. Equal values may be shown once.

Tests used:
GR [1] = target: T1, GR (Homo sapiens, UniProt P04150); assay: Determination of induction activity, MMTV-Luc reporter in AD293 cells transfected with pRShGR (Table 3, FIG. 14); conditions: for RLU / RLU/Renilla: single replicate wells; for activation at 0.01 µM / activation at 1 µM: AD293, 16 h, read-out: % to Dex induction; for fold induction at 0.01 µM / fold induction at 1 µM: AD293, read-out: Steroid Fold Induction; for % to Dex induction: relative to DEX 1000 nM
T1 sequence (P04150 1-777): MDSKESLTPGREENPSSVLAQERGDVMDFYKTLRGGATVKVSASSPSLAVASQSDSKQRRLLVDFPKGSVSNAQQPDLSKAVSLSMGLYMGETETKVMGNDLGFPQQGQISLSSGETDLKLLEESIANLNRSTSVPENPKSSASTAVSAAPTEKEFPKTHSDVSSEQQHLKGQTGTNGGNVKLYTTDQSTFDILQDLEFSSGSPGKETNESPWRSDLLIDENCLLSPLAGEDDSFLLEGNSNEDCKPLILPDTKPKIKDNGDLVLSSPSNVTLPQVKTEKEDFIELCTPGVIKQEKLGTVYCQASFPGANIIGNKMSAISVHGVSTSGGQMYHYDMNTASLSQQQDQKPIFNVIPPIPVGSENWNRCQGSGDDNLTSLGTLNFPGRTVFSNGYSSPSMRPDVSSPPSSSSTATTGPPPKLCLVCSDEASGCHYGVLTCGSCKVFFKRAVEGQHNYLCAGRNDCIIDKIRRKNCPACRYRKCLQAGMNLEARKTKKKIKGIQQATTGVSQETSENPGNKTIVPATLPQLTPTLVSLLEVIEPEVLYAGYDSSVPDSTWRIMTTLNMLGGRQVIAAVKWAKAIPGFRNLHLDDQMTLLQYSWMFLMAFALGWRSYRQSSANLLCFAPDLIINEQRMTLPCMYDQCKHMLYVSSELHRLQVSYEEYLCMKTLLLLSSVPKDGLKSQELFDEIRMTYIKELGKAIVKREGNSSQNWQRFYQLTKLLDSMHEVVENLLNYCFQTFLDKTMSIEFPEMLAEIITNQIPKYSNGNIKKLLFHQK
Method: (§1) AD293 cells were split at 20,000/well in 24 well plate one day before transfection. For transactivation, 100 ng pHHLuc (MMTV-Luc) plasmid, 0.1 ng pRShGR together with 5 ng phRGtkRenilla were transfected by X-tremeGENE 9 (Roche) into AD293 cells per well. For transreperssion, 10 ng AP1-Luc, 100 ng pRShGR and 5 ng phRGtkRenilla were transfected into AD293 cells per well. One day after transfection, cells were induced by different treatment (steroids or vehicle) 16 hrs overnight. Cells were harvest by 1× passive lysis buffer (Promega), luciferase activity was assayed by the Dual-Glo Luciferase system (Promega). Data were plotted by Luciferase Value/Renilla Value, as Relative Luciferase Unit (RLU).
AD293 cells were transfected with 0.1 ng pRShGR, 100 ng MMTV-Luc reporter, and 10 ng TK-Renilla internal control per well in a 24-well plate. One day after transfection, cells were induced by candidate compounds at a concentration of 10 nm or 1 um (see FIG. 14). Cells were harvested and luciferase activity was measured by Promega Dual Luciferacse kit.

[2] = system: OVA-induced mouse asthma model; assay: OVA-induced mouse asthma model, lung function (RL) by FlexiVent; type: in vivo
Method: A OVA-induced mouse asthma model was used to examine the anti-inflammatory effect of candidate compounds. 7-9 weeks old Balb/c mice were primarily immunized with OVA (ovalbumin). […] Related Lung (RL) function in response to acetylcholine was measured by the forced oscillation techniques with the FlexiVent system (SCIREQ).
To evaluate the effect of candidate compounds in repressing lung inflammation, a OVA-induced mouse asthma model was used (RL: relative lung function).

GR [3] = target: T1, GR; assay: Potency of candidate compounds in MMTV-luciferase reporter, full dose-response (FIG. 16A); type: cell-based; set-up: expressed in transfected cells; host or cells: AD293; conditions: doses 0.01 nM to 1000 nM
Excerpt: To evaluate the potency of candidate compounds in a reporter system, an MMTV-luciferase reporter was used.

GR Q642N = target: T2, GR Q642N (Homo sapiens, UniProt P04150, Q642N); assay: Transactivation on MMTV-Luc in AD293 cells, GR Q642N mutant; type: cell-based; conditions: compared with wild type, up to saturation concentration
T2 construct: expressed in transfected cells; host or cells: AD293
T2 sequence (P04150 1-777 Q642N): T1 sequence (P04150 1-777) with Q642N
Method: as §1

GR [4] = target: T1, GR; assay: GR transactivation, MMTV-driven luciferase reporter (MMTV-Luc) in AD293 cells; type: cell-based; set-up: expressed in transfected cells; host or cells: AD293; conditions: transactivation assay, FIG. 3B
Method: as §1

Compound	Mean (RLU/Renilla) (GR [1]; 10 nM)	induction activity compared to other candidate compounds and VSGC12 (GR [1]; 10 nM)	RLU (GR [1]; 10 nM)	RLU/Renilla (GR [1]; 10 nM)	Mean (RLU/Renilla) (GR [1]; 1000 nM)	RLU (GR [1]; 1000 nM)	RLU/Renilla (GR [1]; 1000 nM)	activation at 0.01 µM (GR [1])	activation at 1 µM (GR [1])	fold induction at 0.01 µM (GR [1])	fold induction at 1 µM (GR [1])	repression of lung inflammation compared with VSGC12 ([2]; 0.125 mg/kg, FIG. 16B)	increase in potency over fluticasone furoate (FF) ([2]; FIG. 15)	potency in repressing lung inflammation compared with FF ([2]; FIG. 15, side by side comparison)	potency compared with VSGC12 and DEX (GR [3])	% to Dex induction (GR [1]; 10 nM)	% to Dex induction (GR [1]; 1000 nM)	full dose-response curve of Q642N (GR Q642N)	leftward shift of the cortisol dose-response curve (GR [4])
C[C@@H]1CC2C3C=C(F)C4=Cc5c(cnn5-c5ccccc5)C[C@]4(C)[C@@]3(F)C(O)C[C@]2(C)[C@@]1(OC(=O)c1ccco1)C(=O)O (stereo partly shown) [Compound 1]	0.119	much lower induction activity	21,720 and 17,200 and 24,320	0.116 and 0.093 and 0.149	0.806	186,480 and 180,880 and 219,480	0.642 and 0.818 and 0.959	8.33%	56.2%	2.42	16.4								
CCOC(=O)[C@@]1(OC(=O)c2ccco2)[C@H](C)CC2C3C=C(F)C4=Cc5c(cnn5-c5ccccc5)C[C@]4(C)[C@@]3(F)C(O)C[C@@]21C (stereo partly shown) [Compound 2]	1.328		221,760 and 206,200 and 190,520	1.316 and 1.430 and 1.238	1.311	296,680 and 295,960 and 323,600	1.365 and 1.267 and 1.302	92.6%	91.5%	26.9	26.6								
CC(C)OC(=O)[C@@]1(OC(=O)c2ccco2)[C@H](C)CC2C3C=C(F)C4=Cc5c(cnn5-c5ccccc5)C[C@]4(C)[C@@]3(F)C(O)C[C@@]21C (stereo partly shown) [Compound 3]	1.462		295,280 and 295,520 and 299,320	1.505 and 1.300 and 1.580	1.219	249,160 and 279,160 and 254,120	1.143 and 1.332 and 1.181	102%	85%	29.6	24.7								
C[C@@H]1CC2C3C=C(F)C4=Cc5c(cnn5-c5ccccc5)C[C@]4(C)[C@@]3(F)C(O)C[C@]2(C)[C@@]1(OC(=O)c1ccco1)C(=O)OCF (stereo partly shown) [Compound 4]	1.332		288,320 and 249,160 and 244,360	1.518 and 1.258 and 1.222	1.153	222,960 and 225,280 and 226,280	1.178 and 1.134 and 1.147	92.9%	80.4%	27	23.4	much higher repression activity	8 fold	much more potent	higher potency				
C[C@@H]1CC2C3C=C(F)C4=Cc5c(cnn5-c5ccccc5)C[C@]4(C)[C@@]3(F)C(O)C[C@]2(C)[C@@]1(OC(=O)c1ccco1)C(=O)SCF (stereo partly shown) [Compound 5]	1.444		298,760 and 265,160 and 249,760	1.485 and 1.433 and 1.413	1.235	346,400 and 350,240 and 345,760	1.108 and 1.227 and 1.371	101%	86.1%	29.3	25								
C[C@@H]1CC2C3C=C(F)C4=Cc5c(cnn5-c5ccccc5)C[C@]4(C)[C@@]3(F)C(O)C[C@]2(C)[C@@]1(OC(=O)c1ccco1)C(=O)OC(C)(C)C (stereo partly shown) [Compound 6]	1.417		353,720 and 347,400 and 378,600	1.291 and 1.356 and 1.605	1.614	385,840 and 290,120 and 330,680	1.694 and 1.490 and 1.659	98.8%	113%	28.7	32.7								
C[C@@H]1C[C@H]2[C@@H]3CCC4=CC(=O)C=C[C@]4(C)[C@@]3(F)[C@@H](O)C[C@]2(C)[C@@]1(O)C(=O)CO [DEX, dexamethasone, reference compound]																52.82%	100%		
CON(C)C(=O)[C@@]1(OC(=O)c2ccco2)[C@H](C)CC2C3C=C(F)C4=Cc5c(cnn5-c5ccccc5)C[C@]4(C)[C@@]3(F)C(O)C[C@@]21C (stereo partly shown) [VSGC12, reference compound]	1.402		316,240 and 298,600 and 289,480	1.598 and 1.522 and 1.085	1.682	331,400 and 309,120 and 312,400	1.767 and 1.765 and 1.513	97.8%	117%	28.4	34.1								
C[C@]12CCC(=O)C=C1CC[C@@H]1[C@@H]2[C@@H](O)C[C@@]2(C)[C@H]1CC[C@]2(O)C(=O)CO [cortisol, Cortisol]																		inactive	
C[C@]12C=CC(=O)C=C1CC[C@@H]1[C@@H]2[C@@H](O)C[C@@]2(C)[C@H]1CC[C@]2(O)C(=O)CO [prednisolone]																			about 5 fold
